In patent US10072045B1, “Antibacterial lipopeptides and methods for their preparation and use” (priority 2017, dated 2018):
Values after ≈ are worked out from the molar mass of the structure shown. Where two headings read alike, the source gives them in different places.

Experiments:
Assay type in all cases: cell-based
[1] = test system: Vancomycin-Sensitive Enterococci hirae (VSE, ATCC 1056); assay: microbe, parasite or virus in culture
Experimental: (§1) See, Balouiri, M.; Sadiki, M.; Ibnsouda, S. K.; Methods for In vitro evaluation of antimicrobial activity: review. Journal of Pharmaceutical Analysis, 2016, 6 (2), 71-79; CLSI, Methods for Dilution Antimicrobial Susceptibility Tests for Bacteria that Grow Aerobically, Approved Standard, 9th Ed, CLSI document M07-A9. Approximately 50 μl of the bacterial (MRSA or MSSA) cell suspension (1.0×10^6/ml) inoculated in each well (96-micro well plate) containing 50 μl of dosing solution and plates were incubated at 37±+1C for 18 hrs. After the incubation, bacterial growth in each well of 96-well plate were calorimetrically measured by a Biotek microtiter plate reader at 630 nm. The bacterial growth inhibition (GI) is expressed as a percentage relative to the negative control.
Vancomycin-Sensitive Enterococci hirae (VSE, ATCC 1056).

[2] = test system: Vancomycin-Resistant Enterococci faecium (VRE, ATCC 700221); assay: microbe, parasite or virus in culture
Experimental: as §1
(§2) Vancomycin-Resistant Enterococci faecium (VRE, ATCC 700221);

[3] = test system: Vancomycin-Resistant Enterococci faecalis (VRE, ATCC 51299); assay: microbe, parasite or virus in culture
Experimental: as §1
(§3) Vancomycin-Resistant Enterococci faecalis (VRE, ATCC 51299);

[4] = test system: Vancomycin-Sensitive Enterococci faecalis (VSE, ATCC 29212); assay: microbe, parasite or virus in culture
Experimental: as §1
Vancomycin-Sensitive Enterococci faecalis (VSE, ATCC 29212);

[5] = test system: Methicillin-Sensitive Staphylococcus aureus (MSSA, ATCC6538); assay: microbe, parasite or virus in culture; conditions: read-out: Minimum Inhibitory Concentration (MIC) MSSA (ATCC6538)
Experimental: as §1
Methicillin-Sensitive Staphylococcus aureus (MSSA, ATCC6538)

[6] = test system: Methicillin-Resistant Staphylococcus aureus (MRSA, ATCC33591); assay: microbe, parasite or virus in culture; conditions: for potency relative to daptomycin against MRSA: fold as potent as daptomycin
Experimental: as §1
Methicillin-Resistant Staphylococcus aureus (MRSA, ATCC33591)

[7] = test system: Methicillin-Resistant Staphylococcus aureus (MRSA, PBR Lab Culture#1152); assay: microbe, parasite or virus in culture; conditions: Test B, read-out: Minimum Inhibitory Concentration (MIC) MRSA (PBR1152)
Experimental: as §1
Methicillin-Resistant Staphylococcus aureus (MRSA, PBR Lab Culture#1152)

[8] = test system: Vancomycin-Resistant Enterococci (VRE); assay: Potency against VRE relative to daptomycin (Test C); conditions: fold better potency; strain not specified
Experimental: as §1, §2, §3

CCCCCCCCCC(=O)N[C@@H](Cc1c[nH]c2ccccc12)C(=O)N[C@H](CC(N)=O)C(=O)N[C@@H](CC(=O)O)C(=O)N[C@@H]1C(=O)NCC(=O)N[C@@H](CCCN)C(=O)N[C@@H](CC(=O)O)C(=O)N[C@H](C)C(=O)N[C@@H](CC(=O)O)C(=O)NCC(=O)N[C@H](CO)C(=O)N[C@@H]([C@H](C)CC(=O)O)C(=O)N[C@@H](CC(=O)c2ccccc2N)C(=O)O[C@@H]1C [Daptomycin, reference compound]
Minimum Inhibitory Concentration (MIC) VSE (ATCC 1056) [1]: 5.0 µM | Minimum Inhibitory Concentration (MIC) VRE (ATCC 700221) [2]: 2.5 µM | Minimum Inhibitory Concentration (MIC) VRE (ATCC 51299) [3]: 1.25 µM | Minimum Inhibitory Concentration (MIC) VSE (ATCC 29212) [4]: 1.25 µM

COc1cccc(OC)c1C(=O)N[C@@H]1C(=O)N2[C@@H]1SC(C)(C)[C@@H]2C(=O)O [Methicillin]
MIC ([5]; Test A): < 1 µg/mL | MIC ([5]; Test B): < 1 µg/mL | MIC ([6]; Staphylococcus aureus, Test A, read-out: Minimum Inhibitory Concentration (MIC) MRSA (ATCC33591)): > 64 µg/mL | MIC [7]: > 64 µg/mL

CCCCCCCCCC(=O)N[C@@H](Cc1c[nH]c2ccccc12)C(=O)N[C@H](CC(N)=O)C(=O)N[C@@H](CC(=O)O)C(=O)N[C@@H]1C(=O)NCC(=O)N[C@@H](CCCN)C(=O)N[C@@H](CC(=O)O)C(=O)N[C@H](C)C(=O)N[C@@H](CC(=O)O)C(=O)NCC(=O)N[C@H](CO)C(=O)N[C@@H]([C@H](C)CC(=O)O)C(=O)N[C@@H](CC(=O)c2ccccc2NCC)C(=O)O[C@@H]1C [RP001]
Minimum Inhibitory Concentration (MIC) VSE (ATCC 1056) [1]: 5.0 µM | Minimum Inhibitory Concentration (MIC) VRE (ATCC 700221) [2]: 1.25 µM | Minimum Inhibitory Concentration (MIC) VRE (ATCC 51299) [3]: 0.625 µM | Minimum Inhibitory Concentration (MIC) VSE (ATCC 29212) [4]: 0.625 µM

CCCCCCCCCC(=O)N[C@@H](Cc1c[nH]c2ccc(F)cc12)C(=O)N[C@H](CC(N)=O)C(=O)N[C@@H](CC(=O)O)C(=O)N[C@@H]1C(=O)NCC(=O)N[C@@H](CCCN)C(=O)N[C@@H](CC(=O)O)C(=O)N[C@H](C)C(=O)N[C@@H](CC(=O)O)C(=O)NCC(=O)N[C@H](CO)C(=O)N[C@@H]([C@H](C)CC(=O)O)C(=O)N[C@@H](CC(=O)c2cc(Cl)cc(Cl)c2NCC)C(=O)O[C@@H]1C [RP005]
Minimum Inhibitory Concentration (MIC) VSE (ATCC 1056) [1]: <0.156 µM | Minimum Inhibitory Concentration (MIC) VRE (ATCC 700221) [2]: <0.156 µM | Minimum Inhibitory Concentration (MIC) VRE (ATCC 51299) [3]: <0.156 µM | potency relative to daptomycin against Vancomycin-Resistant Enterococci (VRE) [8]: roughly 10 fold | potency relative to daptomycin against MRSA [6]: roughly 10 fold | Minimum Inhibitory Concentration (MIC) VSE (ATCC 29212) [4]: <0.156 µM

CCCCCCCCCC(=O)N[C@@H](Cc1cn(C)c2ccccc12)C(=O)N[C@H](CC(N)=O)C(=O)N[C@@H](CC(=O)O)C(=O)N[C@@H]1C(=O)NCC(=O)N[C@@H](CCCN)C(=O)N[C@@H](CC(=O)O)C(=O)N[C@H](C)C(=O)N[C@@H](CC(=O)O)C(=O)NCC(=O)N[C@H](CO)C(=O)N[C@@H]([C@H](C)CC(=O)O)C(=O)N[C@@H](CC(=O)c2cc(Br)ccc2NCC)C(=O)O[C@@H]1C [RP008]
Minimum Inhibitory Concentration (MIC) VSE (ATCC 1056) [1]: 0.313 µM | Minimum Inhibitory Concentration (MIC) VRE (ATCC 700221) [2]: 0.313 µM | Minimum Inhibitory Concentration (MIC) VRE (ATCC 51299) [3]: <0.156 µM | Minimum Inhibitory Concentration (MIC) VSE (ATCC 29212) [4]: <0.156 µM

CCCCCCCCCC(=O)N[C@@H](Cc1c[nH]c2ccc(C)cc12)C(=O)N[C@H](CC(N)=O)C(=O)N[C@@H](CC(=O)O)C(=O)N[C@@H]1C(=O)NCC(=O)N[C@@H](CCCN)C(=O)N[C@@H](CC(=O)O)C(=O)N[C@H](C)C(=O)N[C@@H](CC(=O)O)C(=O)NCC(=O)N[C@H](CO)C(=O)N[C@@H]([C@H](C)CC(=O)O)C(=O)N[C@@H](CC(=O)c2ccccc2NCC)C(=O)O[C@@H]1C [RP011]
Minimum Inhibitory Concentration (MIC) VSE (ATCC 1056) [1]: 1.25 µM | Minimum Inhibitory Concentration (MIC) VRE (ATCC 700221) [2]: 0.625 µM | Minimum Inhibitory Concentration (MIC) VRE (ATCC 51299) [3]: <0.156 µM | Minimum Inhibitory Concentration (MIC) VSE (ATCC 29212) [4]: 0.313 µM

CCCCCCCCCC(=O)N[C@@H](Cc1c[nH]c2ccc(C)cc12)C(=O)N[C@H](CC(N)=O)C(=O)N[C@@H](CC(=O)O)C(=O)N[C@@H]1C(=O)NCC(=O)N[C@@H](CCCN)C(=O)N[C@@H](CC(=O)O)C(=O)N[C@H](C)C(=O)N[C@@H](CC(=O)O)C(=O)NCC(=O)N[C@H](CO)C(=O)N[C@@H]([C@H](C)CC(=O)O)C(=O)N[C@@H](CC(=O)c2cc(Cl)cc(Cl)c2NCC)C(=O)O[C@@H]1C [RP012]
Minimum Inhibitory Concentration (MIC) VSE (ATCC 1056) [1]: <0.156 µM | Minimum Inhibitory Concentration (MIC) VRE (ATCC 700221) [2]: <0.156 µM | Minimum Inhibitory Concentration (MIC) VRE (ATCC 51299) [3]: <0.156 µM | potency relative to daptomycin against Vancomycin-Resistant Enterococci (VRE) [8]: roughly 10 fold | potency relative to daptomycin against MRSA [6]: roughly 10 fold | Minimum Inhibitory Concentration (MIC) VSE (ATCC 29212) [4]: <0.156 µM

CN[C@H](CC(C)C)C(=O)N[C@H]1C(=O)N[C@@H](CC(N)=O)C(=O)N[C@H]2C(=O)N[C@H]3C(=O)N[C@H](C(=O)N[C@H](C(=O)O)c4cc(O)cc(O)c4-c4cc3ccc4O)[C@H](O)c3ccc(c(Cl)c3)Oc3cc2cc(c3O[C@@H]2O[C@H](CO)[C@@H](O)[C@H](O)[C@H]2O[C@H]2C[C@](C)(N)[C@H](O)[C@H](C)O2)Oc2ccc(cc2Cl)[C@H]1O [Vacomycin, reference compound]
MIC ([1]; Enterococcus hirae, ATCC1056, read-out: Minimum Inhibitory Concentration (MIC) VSE (ATCC 1056)): 0.313 µM (≈ 0.454 µg/mL) | MIC ([2]; Enterococcus, read-out: Minimum Inhibitory Concentration (MIC) VRE (ATCC 700221)): > 10 µM | MIC ([3]; Enterococcus, read-out: Minimum Inhibitory Concentration (MIC) VRE (ATCC 51299)): > 10 µM | MIC ([4]; Enterococcus faecalis, ATCC29212, read-out: Minimum Inhibitory Concentration (MIC) VSE (ATCC 29212)): 1.25 µM (≈ 1.81 µg/mL)
